Assay [1] has as its target T1, Retinoic acid receptor RXR-beta (Homo sapiens, UniProt P28702).
T1 sequence (P28702 whole entry): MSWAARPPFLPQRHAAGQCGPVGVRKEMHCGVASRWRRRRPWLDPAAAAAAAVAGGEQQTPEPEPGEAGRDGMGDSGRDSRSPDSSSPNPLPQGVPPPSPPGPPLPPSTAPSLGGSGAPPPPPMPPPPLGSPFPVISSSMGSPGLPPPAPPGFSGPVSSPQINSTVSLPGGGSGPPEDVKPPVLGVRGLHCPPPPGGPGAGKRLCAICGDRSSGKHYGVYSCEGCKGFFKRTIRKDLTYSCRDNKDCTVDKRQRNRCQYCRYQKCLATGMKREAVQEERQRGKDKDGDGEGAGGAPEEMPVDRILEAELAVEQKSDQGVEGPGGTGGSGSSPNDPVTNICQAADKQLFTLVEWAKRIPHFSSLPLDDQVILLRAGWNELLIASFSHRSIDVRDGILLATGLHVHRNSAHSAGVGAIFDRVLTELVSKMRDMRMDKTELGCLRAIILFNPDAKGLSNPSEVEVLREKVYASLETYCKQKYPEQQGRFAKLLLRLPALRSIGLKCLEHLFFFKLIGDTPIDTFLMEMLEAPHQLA
Put plainly: Inhibition of [3H]-9-cis RA binding to Retinoid X receptor RXR beta.

The target of assay [2] is T2, Retinoic acid receptor RXR-gamma (Homo sapiens, UniProt P48443).
T2 sequence (P48443 whole entry): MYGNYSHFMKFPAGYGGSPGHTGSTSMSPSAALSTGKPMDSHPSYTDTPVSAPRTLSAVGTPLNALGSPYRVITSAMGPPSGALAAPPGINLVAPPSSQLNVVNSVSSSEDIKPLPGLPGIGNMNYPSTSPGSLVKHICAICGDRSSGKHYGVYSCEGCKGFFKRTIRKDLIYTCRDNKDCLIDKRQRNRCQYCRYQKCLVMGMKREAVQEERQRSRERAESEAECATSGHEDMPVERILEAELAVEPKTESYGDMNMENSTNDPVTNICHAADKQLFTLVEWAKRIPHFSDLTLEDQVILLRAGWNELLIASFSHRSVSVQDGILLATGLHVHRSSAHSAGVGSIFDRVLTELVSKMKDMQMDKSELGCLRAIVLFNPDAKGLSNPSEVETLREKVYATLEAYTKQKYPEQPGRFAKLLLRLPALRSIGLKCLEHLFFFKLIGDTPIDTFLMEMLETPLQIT
Put plainly: Inhibition of [3H]-9-cis RA binding to Retinoid X receptor RXR gamma.

pKd: −log10 of the molar value.

This passage reports Kd results from ChEMBL document CHEMBL1131949, “Stereoselective synthesis and receptor activity of conformationally defined retinoid X receptor selective ligands” (Bioorg Med Chem Lett, 1999).

One may read the pKd as the Kd on a negative log10 scale, so that one unit is a factor of ten. A higher pKd goes with a low Kd. As to `CC1=C(/C=C/c2ccccc2/C=C/C(C)=C/C(=O)O)C(C)(C)CCC1`, the negative-log Kd (pKd) in assay [1] was 7.28; in assay [2], 7.46.

Consider `CC1=C(/C=C/c2occc2/C=C/C(C)=C/C(=O)O)C(C)(C)CCC1`, for which the pKd in assay [1] was 7.82; in assay [2], 7.85.
